Reference: patent EP1245247A1, “Biocidal locks” (Biolink Corporation, priority 2001, dated 2002)

Legend:
S. epidermis = settings: cited from earlier work
[1] = system: Vancomycin-Intermediate Susceptibility Staphylococcus Aureus (VISA) and Methicillin-Resistant Staphylococcus Aureus (MRSA); settings: range pH 7.0 to pH 5.0; cited from earlier work
E. coli = settings: intravenous 0.2 mL of a 20% solution in sterile 5% polyvinyl pyrrolidone; intraperitoneal E. coli; cited from earlier work
B. fragilis = settings: intravenous 0.2 mL of a 20% solution in sterile 5% polyvinyl pyrrolidone; intraperitoneal B. fragilis; cited from earlier work
blood = assay: Clotting of pig blood collected into containers holding taurolidine solution (Example 1); settings: pig blood filled up to the 30 mL level; inspected after 30 minutes
Experimental: A 0.5% solution of taurolidine in Ringer-lactate solution (Thomae, Biberach, Germany) was introduced into each of four polyethylene bottles having a 30 mL volume. Filling volumes were 5, 10, and 15 mL. One bottle was filled with 5 mL of the taurolidine solution and 2 mL ACD-A (Fresenius, Bad Homburg, Germany) solution. ACD-A solution is used for the conservation of whole blood and contains per liter: 22.0 grams of sodium citrate dihydrate, 7.3 grams of citric acid and 34.5 grams of glucose monohydrate.
Blood was collected at a slaughter house from a female pig directly from the slaughter wound into the containers that were then filled up to the 30 mL level. The containers were capped and gently moved to mix blood with the solution. The containers were inspected after 30 minutes. Blood in the containers containing only taurolidine was clotted, but the blood in the container containing the mixture of taurolidine and ACD-A was not clotted.

[2] = mouse, in vivo; cited from earlier work
[3] = mice; cited from earlier work

In the case of CN[C@H](CC(C)C)C(=O)N[C@H]1C(=O)N[C@@H](CC(N)=O)C(=O)N[C@H]2C(=O)N[C@H]3C(=O)N[C@H](C(=O)N[C@H](C(=O)O)c4cc(O)cc(O)c4-c4cc3ccc4O)[C@H](O)c3ccc(c(Cl)c3)Oc3cc2cc(c3O[C@@H]2O[C@H](CO)[C@@H](O)[C@H](O)[C@H]2O[C@H]2C[C@](C)(N)[C@H](O)[C@H](C)O2)Oc2ccc(cc2Cl)[C@H]1O [Vancomycin], the bactericidal dose (S. epidermis; initial inocula of 10^3 CFU/mL) is given as 6.7 µg/mL.
For O=C([O-])CN(CCN(CC(=O)[O-])CC(=O)O)CC(=O)O.[Na+].[Na+] [disodium EDTA], the bactericidal concentration (S. epidermis; initial inoculum of 10^3 CFU of staphylococci per mL, in 24 hours) is given as 20 mg/mL.
In the case of O=S1(=O)CCN(CN2CCS(=O)(=O)NC2)CN1 [taurolidine, bis-(1,1-dioxo-perhydroxy-1,2,4-thiadiazin-4-yl)methane], the “dependence of activity on pH” value [1] is listed as “activity increases with decreasing pH”, the mortality rate (E. coli) is listed as “very significantly reduce the mortality rate” and the mortality rate (B. fragilis) is listed as “very significantly reduce the mortality rate”. For the same molecule, the “Blood clotting in the containers” value (blood) was “clotted”, the teratogenicity [2] was “non-teratogenic” and the “intraperitoneal LD50” value [3] was about 1500 mg/kg.
